Results: patent US20230391821A1, “METHODS FOR TARGET RELEASE FROM INTEIN COMPLEXES” (MERCK PATENT GMBH, priority 2020, published 2023)

Assays:
[1] = system: intein complex of 13 kDa intein-C tagged target and intein-N ligand R44-358132; test: Example 3: intein cleavage under capture conditions (pH 9), no pH shift; type: biochemical; details: 13 kDa target, versus Capture A.1
Method: A 13 kDa intein-C tagged target was pre-purified using Strep-II Tag purification as described in example 1 and was diluted to a concentration of 1 mg/mL. The intein-N resin prototype column was equilibrated with 10 CV Capture Buffer (100 mM Tris, 200 mM NaCl, pH 9). The pre-purified intein-C target was loaded with 5 CV to the prototype column under capture conditions (100 mM Tris, 200 mM NaCl, pH 9). The impurities were washed out with 10 CV Capture Buffer (100 mM Tris, 200 mM NaCl, pH 9). The Capture Buffer designated A.1 (100 mM Tris, 200 mM NaCl, pH 9) was used as a reference in this setup. […]
The two different Capture Buffers A.1 and A.2 were used in two consecutive purification cycles. The A280-Absorbance chromatograms were recorded and analyzed to determine the amount of protein recovered from the elution and the CIP phase.
The amount of eluted target recovered from the elution step 1 and elution step 2 were determined using the A280-Absorbance and the molecular extinction coefficient of the cleaved target. The total bound amount of intein-C tagged protein was calculated using the eluted target, and the remaining intein-C target, that was released during the cleaning phase together with the remained intein-C fragments. The yield of tagless released target during the elution phase was calculated per total bound intein-C target. […]

[2] = system: intein complex of 13 kDa intein-C tagged target (Thioredoxin) and intein-N ligand R44-358132; test: Example 2-1: intein cleavage / tagless target release on intein-N column, Cleavage Buffer pH 7 with additives; type: biochemical, Escherichia coli (strain K12); details: 13 kDa target, versus Cleavage B.1
[3] = system: intein complex of intein-C tagged hEPO (19 kDa) and intein-N ligand R46-358132; test: Example 6: intein cleavage at pH 7, highly glycosylated target hEPO; type: biochemical, human; details: versus Cleavage B.1
[4] = system: intein complex of 13 kDa intein-C tagged target and intein-N ligand R46-358132; test: Example 4: intein cleavage with 10 min residence time during elution, with and without pH shift; type: biochemical
Method: The intein-N resin prototype column, carrying a third generation of intein-N ligand (R46-358132) was used for five intein purifications. The improvement of intein cleavage through additives such as imidazole (Examples 2, 3) was studied under longer residence times, with and without introducing a pH shift during the elution phase.
One reference run (cycle 1) was accomplished as a reference run for that study, using 5 minutes residence time during the whole purification process (0.2 ml/min flow rate). Further, the intein-N resin prototype column was used in additional four consecutive cycles (cycles 2-5) where a combinatorial method flow rate was given. […]
Depending on the used buffer system during the elution phase, the amount of eluted tagless 13 kDa target was about 0.40-0.91 mg. […] The total intein-C bound protein was calculated using the eluted target and the remaining intein-C target, that was released during the cleaning phase together with the remained intein-C fragments. The amount of eluted target during elution step 1 and step 2 was calculated for all five cycles using the A280-Absorbance and the molecular extinction coefficient of the cleaved target.
The yield of tagless released target during the elution phase was calculated per total bound amount of intein-C target. […]

[5] = system: intein complex of intein-C tagged S1-RBD (26 kDa) and intein-N ligand R49-358132; test: Example 6: intein cleavage at pH 7, highly glycosylated target S1-RBD; type: biochemical, SARS-CoV-2; details: versus Cleavage B.1

SMILES: c1c[nH]cn1 [imidazole]
- % improvement in yield (E1) [1]: 15.15%
- % improvement in yield (E1) [2]: up to 11.15%
- % improvement in yield (total) [3]: 12.22%
- elution amount in A280 chromatogram compared with buffer without additive ([4]; 13 kDa target, elution 1 and 2, FIG. 9): higher elution amount
- % improvement in yield (E1) ([4]; cycle 3 (B.2) versus cycle 1 (B.1, 0.2 ml/min), cycle 5 (A.2) versus cycle 4 (A.1)): 12.51%
- % improvement in yield (total) [5]: 1.95%
